Earlier results, collected in patent publication US5418161A (The Chinese University of Hong Kong, priority 1993, dated 1995).

O=C1/C(=C2\Nc3ccc(S(=O)(=O)O)cc3C2=O)Nc2ccc(S(=O)(=O)O)cc21 [indigo carmine]
solubility in water: soluble
